One block for each compound: values may come before it. *1 amine or outer side, *2 acyl side, *3 side chain or, on linkers, in order; H or OH if unused. Positions of bridges follow the written chain, without caps; N, C: chain ends. Where a SMILES comes first, the peptide text is derived from it. Residues, ends and D or L forms follow the SMILES beside them. [ ]: non-standard residue; d: D form. The star is where a group is joined. X1 = CC(C)C[C@H](N[*:1])[C@@H](O)C[C@H](C(=O)[*:2])C(C)C; NMeH = CN[C@@H](Cc1c[nH]cn1)C(=O)O; NHCH2(2-pyridyl) = c1ccc(CN*)nc1; Boc = CC(C)(C)OC(=O)*
What was measured:
[1] = not given; remark: listed apart in the source
[2] = not given; remark: listed apart in the source
[3] = not given; remark: listed apart in the source
[4] = not given; remark: listed apart in the source
[5] = not given; remark: listed apart in the source
[6] = not given; remark: listed apart in the source
[7] = method code SF, from Moerlein, M.; Dischino, D.; Raymond, N.; Weitl, L.; Welch, J. (1982). Factors affecting the cerebral uptake of gallium complexes. J Labelled Comp Radiopharm, 19(11-12)1421-1422.; details: pH 7.0
[8] = not given; remark: listed apart in the source
[9] = method code SF-AS, from DOI: 10.1021/jm0401006, PMID: 15481980; details: pH 7.4
[10] = method code AS, from DOI: 10.1081/jlc-120022394

SMILES: C=CC[C@@H]1/C=C(\C)C[C@H](C)C[C@H](OC)[C@H]2O[C@@](O)(C(=O)C(=O)N3CCCC[C@H]3C(=O)O[C@H](/C(C)=C/[C@@H]3CC[C@@H](O)[C@H](OC)C3)[C@H](C)[C@@H](O)CC1=O)[C@H](C)C[C@@H]2OC
logP [4]: 3.3

SMILES: CCCCCCCCN(CCCCN(CCCN(CCCCCCCC)C(=O)c1cccc(O)c1O)C(=O)c1cccc(O)c1O)C(=O)c1cccc(O)c1O
logD [7]: 0.51

SMILES: CO[C@H]1C=CO[C@@]2(C)Oc3c(C)c(O)c4c(c3C2=O)C(=O)/C(=C/NN2CCN(C3CCCC3)CC2)C(=C4O)NC(=O)/C(C)=C\C=C/[C@H](C)[C@H](O)[C@@H](C)[C@@H](O)[C@H](C)[C@H](OC(C)=O)[C@H]1C
logP [8]: 1.24

SMILES: CCOC(=O)c1cnc2c(c(C)nn2C)c1Nc1ccc(OC(C)=O)cc1
logD [9]: 1.67

SMILES: CCOC(=O)C(=Cc1ccc(Cl)cc1)NC=O
logP [10]: 2.65

Next, values leading:

logP: 6.37
SMILES: CCC(C(=O)OCc1ccc(COC(=O)C(CC)C(COC(=O)c2ccccc2)Cc2cncn2C)cc1)C(COC(=O)c1ccccc1)Cc1cncn1C (stereo unspecified)

logP [1]: 7.62
SMILES: COC(=O)[C@H](Cc1ccccc1)NC(=O)[C@H](Cc1ccccc1)NC(=O)[C@@H](NC(=O)[C@H](CC(C)C)NC(=O)[C@H](CCCCNC(=O)OCc1ccccc1)NC(=O)OC(C)(C)C)C(C)C

logP [2]: 4.2
SMILES: CC[C@H](C)[C@H](NC(=O)[C@@H](C[C@H](O)[C@H](CC(C)C)NC(=O)[C@H](Cc1cnc[nH]1)N(C)C(=O)[C@H](Cc1ccccc1)NC(=O)[C@@H]1CCCN1C(=O)OC(C)(C)C)C(C)C)C(=O)NCc1ccccn1 (Boc-PF[NMeH][X1]I-{NHCH2(2-pyridyl)})

logP [3]: -1.62
SMILES: CC[C@H](C)[C@@H]1NC(=O)[C@H](Cc2ccc(O)cc2)NC(=O)[C@@H](N)CSSC[C@@H](C(=O)N2CCC[C@H]2C(=O)N[C@@H](CCCN=C(N)N)C(=O)NCC(N)=O)NC(=O)[C@H](CC(N)=O)NC(=O)[C@H](CCC(N)=O)NC1=O (H-CYIQNCPRG-NH2; disulfide 1-6)

logP [5]: 3.08
SMILES: CCCC(=O)O[C@H]1[C@H](C)O[C@@H](O[C@H]2[C@H](N(C)C)[C@@H](O)[C@H](O[C@H]3[C@@H](CC=O)C[C@@H](C)[C@@H](O)/C=C/C=C/C[C@@H](C)OC(=O)C[C@@H](O)[C@@H]3OC)O[C@@H]2C)C[C@@]1(C)OC(=O)CC

logP [6]: -0.4
SMILES: COc1ccc(C2(O)OC(=O)C(c3ccc4c(c3)OCO4)=C2Cc2cc(OC)c(OC)c(OCCOCCOCCOCCOCc3cn(C4OC(CO)C(O)C(O)C4F)nn3)c2)cc1 (stereo unspecified)
